Entries after “also recorded” stand apart in the source; their conditions may differ.
Assays:
[1] = tested on: smokers, 36 hours of smoking abstinence; experiment: Post-spray symptom-specific subjective ratings (0-10) of pain, burn, taste (Example 2); format: in vivo, human
Experimental: Additional outcome measures included safety measures, i.e., post-spray symptom-specific subjective ratings and adverse events. Post-spray symptom-specific subjective ratings (0-10) of burn, pain, cough, and taste were collected after each spray round. Administration instructions were one spray in each nostril every three minutes for the total of six sprays. […] Adverse events were recorded and collected following the completion of every session as well as completion of the entire study.
Placebo contained 8.7% NaCl. Per FDA approved protocol, the product was prepared in a biosafety cabinet of UNM Translational Radiopharmacy. Drug Preparation occurred 30 minutes before administration. […] or placebo was placed in a 10 mL amber glass bottle (Gerresheimer AG, Düsseldorf, Germany), which was capped with a 10 mg sterile nasal pump (Aero Pump GmbH, Hochheim, Germany). Assembled product was primed per manufacturer's recommendations before 0.6 ml volume was administered to study participants. In a randomized fashion, study nurse administered one spray in each nostril every three minutes for the total of six sprays of either insulin or placebo. As each spray delivers 0.1 ml of fluid, and the concentration of insulin in Novolin R is 100 IU/mL, administering six sprays delivers 60 IU of insulin.
Random coefficient models were constructed for analyzing study outcomes. Treatment, time, treatment by time interaction, and sequence were included as fixed effects. Time nested within subjects, and time nested within treatment nested within subjects were included as random effects. Adverse events are presented in a descriptive fashion. No adjustment for multiple tests was made; all p values are reported at their nominal level.

[2] = tested on: overnight abstinent smokers; experiment: Questionnaire on Smoking Urges Brief ratings, overnight abstinence with Trier Social Stress Test (Example 1, parallel study); format: in vivo, human
Experimental: Session 2 methodology and results are presented in this publication.
Subjects started their overnight abstinence at 8 PM the night before reporting to the University of New Mexico Clinical and Translational Science Center. At 8 AM the following day, abstinence from smoking was confirmed with a CO reading on a coVita piCO+ breathalyzer less than 50% of their baseline CO recorded at intake. […] Exposure to nicotine was analyzed by quantitative liquid chromatography-tandem mass spectrometry. Cutoff for nicotine was 2 ng/mL for nicotine.
Following negative urine drug and pregnancy tests, at 8:30 AM, subjects completed their morning assessment of smoking urges and mood. A salivary cortisol sample was also taken at this time. They were then provided breakfast (a slice of banana bread, one apple, and two cheese sticks), which they had to eat entirely. The rest of the morning, subjects watched and read emotionally neutral movies and literature. At 11:45 AM, a study nurse inserted the intravenous line, completed a point-of-care (POC) glucose check and nares assessment.
Intranasal spray administration of insulin or placebo occurred at 12:30 PM. The purpose of the spacing time between morning check-in and nasal spray administration was stabilization of postprandial insulin levels. In a randomized fashion, the study nurse administered one spray in each nostril every three minutes for the total of six sprays of either insulin or placebo. Instructions to perform the Trier Social Stress Test were given at 13:20, and speech delivery occurred 13:30. Briefly, the Trier Social Stress Test^13 is a standardized laboratory stressor consisting of a free speech and a mental arithmetic task in front of an audience. Participants were introduced to the task and instructed to prepare a 5-minute presentation in which they were to promote their candidacy for a job. The speech was delivered after a 10-minute preparation period. Thereafter, participants were introduced to the mental arithmetic task, also standing in front of the audience and a self-projecting television screen. Subjects were required to count backwards from 2023 in steps of 17 as fast and accurately as possible for five minutes; upon making a mistake, subjects were asked to stop and start again at 2023. At every post-stress timepoint (13:40, 13:50, 14:00, 14:10, and 14:40), study nurses checked POC glucose to ensure euglycemia. After the last time point at 14:40, subjects ate a snack, had their glucose level checked, received another nares exam, and were discharged from the clinic at 16:00.
Subjective measures included the Questionnaire on Smoking Urges (QSU) Brief Form and Positive and Negative Affect Schedule (PANAS). Urges to smoke were rated using the 10-item QSU Brief Form^14 that consists of 10-questions. The answers are scored from 1 (strongly disagree) to 7 (strongly agree). These questions are the basis for the two factor derived subscales. Factor 1 subscale reflects a strong desire and intention to smoke with smoking perceived as rewarding. Factor 2 subscale reflects an anticipation of relief from negative affect with an urgent desire to smoke. Study data analysis included evaluations of both factors. The PANAS (Watson et al., 1988. J Pers Soc Psychol 54(6):1063-1070) consists of 10 negative and 10 positive mood terms rated on five-point Likert-type response scales from 1 (very slightly or not at all) to 5 (extremely). Positive and negative scale scores each range between 10 and 50. The PANAS was chosen as a composite measure of self-reported positive and negative affect. Subjective measures were taken at 08:30, 12:20, 13:00, 13:40, 13:50, 14:00, 14:10 and 14:40.
Placebo contained normal saline (0.9% NaCl). The product was prepared in a biosafety cabinet 30 minutes before administration. Insulin or placebo was placed in a 10 mL amber glass bottle (Gerresheimer AG, Düsseldorf, Germany), which was capped with a 10 mg sterile nasal pump (Aero Pump GmbH, Hochheim, Germany). […]

[3] = vs 8.7% NaCl placebo, scale 0-10, three spray rounds, p≤0.05

intranasal insulin: bulk human Regular insulin (U100 Novolin R, Novo Nordisk US), 100 IU/ml, six nasal sprays delivering 60 IU
“taste” rating, interaction with treatment, b ([1]; SE(b)=0.10, z=−0.75, p=0.45, not significant): −0.07
“pain” rating, treatment×spray number, b ([1]; SE(b)=0.16, z=−0.47, p=0.63): −0.07
“burn” rating, interaction with treatment, b ([1]; SE(b)=0.17, z=1.23, p=0.22, not significant): 0.21
“pain” rating, treatment, b ([1]; SE(b)=0.31, z=−1.17, p=0.24): −0.36
“burn” rating, treatment, b ([1]; SE(b)=0.43, z=−2.34, p≤0.05): −1.01
Subjective spray rating of “pain”, effect of treatment ([1]; vs 8.7% NaCl placebo, scale 0-10, three spray rounds): No group differences were detected
Subjective spray rating of “burn”, effect of treatment [1, 3]: Main effect of treatment was significant; also recorded: There was an effect of treatment
Subjective spray rating of “taste”, effect of treatment [1, 3]: Main effect of treatment was significant; also recorded: there was an effect of treatment
Subjective spray rating of “burn”, effect of treatment ([1]; vs 8.7% NaCl placebo, scale 0-10, three spray rounds, p≤0.05, listed as Intranasal insulin): notable burning sensation
Smoking urges / nicotine cravings (Questionnaire on Smoking Urges Brief) compared to placebo ([2]; 60 IU intranasal, overnight abstinence, through Trier Social Stress Test, p≤0.05): decreased significantly; also recorded: significant reduction of nicotine cravings
Smoking urges, treatment×time interaction, b ([2]; 60 IU vs placebo, SE(b)=0.032, z=1.93, p≤0.05): 0.064
Smoking urges, main effect of treatment, b ([2]; 60 IU vs placebo, SE(b)=4.81, z=1.39, p=0.16, not significant): 6.66
QSU-Brief Factor 2 (anticipation of relief from negative affect) compared to placebo ([2]; 60 IU, overnight abstinence, interaction non-significant): no effect; also recorded: not Factor 2 scale
QSU-Brief Factor 1 (strong desire and intention to smoke) compared to placebo ([2]; 60 IU, overnight abstinence, p≤0.05): overall decrease in smoking urges was driven by intranasal insulin's effect on Factor 1
QSU-Brief Factor 1 (strong desire and intention to smoke) compared to placebo ([2]; 60 IU, overnight abstinence, p≤0.05, listed as Intranasal insulin): significantly decreased
Duration of effect on QSU-Brief Factor 1 ([2]; 60 IU, detected immediately following treatment administration): ≥ 100 min
QSU-Brief Factor 2, treatment×time interaction, b ([2]; SE(b)=0.01, z=1.48, p=0.14): 0.02
QSU-Brief Factor 1, treatment×time interaction, b ([2]; SE(b)=0.018, z=2.15, p≤0.05): 0.039
QSU-Brief Factor 2, main effect of treatment, b ([2]; SE(b)=2.37, z=1.58, p=0.11): 3.76
QSU-Brief Factor 1, main effect of treatment, b ([2]; SE(b)=2.61, z=1.36, p=0.17): 3.55
